Results reported in patent US20250162973A1, “METHODS OF SYNTHESIS AND USES OF AGRIMOL COMPOUNDS” (Versitech Limited, priority 2022, published 2025).

Legend:
[1] = Maximum tolerated dose (MTD) determination, general toxicity and body weight; format: in vivo
Description: (§1) The MTD test in this study was done in collaboration with Tianjin Institute of Pharmaceutical Research (TIPR). […] A total of 80 mice were randomly assigned into four groups (10 male and 10 female mice in each group) in this study. Four groups included 16.0 mg/kg of AGB group, 12.8 mg/kg of AGB group, vehicle control group (10% DMSO+0.8% Tween-80 in normal saline), and the blank control group (normal saline).
(§2) Then, the body weights of surviving animals were measured on the 1st, 3rd, 7th and 14th days, respectively. At the end of experiment, the hematology, blood biochemistry, anatomical examination, and histopathology examination were performed in both vehicle control group and the MTD group (12.8 mg/kg). The data were presented as the mean±standard deviation.

[2] = system: mitochondria of NCI-H460 cells; assay: Mitochondrial morphology and fusion/fission proteins (MitoTracker, Western Blot, immunofluorescence, TEM); format: cell-based, human
Excerpt: Mitochondria are highly dynamic organelles that frequently fuse and fragment, with the ability to change size, shape, and position. The dynamic nature of mitochondria is important for mitochondrial inheritance and for the maintenance of mitochondrial functions. When the balance between fission and fusion is disrupted, as result of a relative increase or decrease in either process, the overall mitochondrial morphology is changed markedly.
Several proteins that control mitochondrial fusion and fission have been identified, including mitofusins and OPA1 for fusion, and Mff and DRP1 for fission. The effects of AGB on the expression of mitochondrial fusion proteins (Mfn1 and Mfn2) and fission proteins (DRP1 and Mff) were studied. […] DRP1 phosphorylation at residue S637 by protein kinase A inhibits mitochondrial fission whereas dephosphorylation at S637 increases mitochondrial recruitment of DRP1 and promotes mitochondrial fission. The localization of DRP1 was examined by the immunofluorescence staining.
OPA1 is another protein localized at the inner mitochondrial membrane and is involved in different function like regulation of mitochondrial morphology dynamics, maintenance of respiratory chain, and control of ATP synthesis. The decrease of L-OPA1 causes inhibition of mitochondrial fusion, whereas the accumulation of S-OPA1 facilitates mitochondrial fission. […] OPA1 plays a role in maintaining the mitochondrial cristae structure. OPA1 fragmentation leads to a disorganization of the structure of the mitochondrial inner membrane. The ultrastructure of mitochondria was observed under transmission electron microscopy (TEM) with the treatment of AGB or vehicle for 16 h.

[3] = Serum biochemical examination in MTD test; format: in vivo; settings: 12.8 mg/kg
Description: as §1, §2

[4] = system: CCD-19Lu (human lung fibroblast normal cell); assay: MTT cell viability assay, normal cell; format: cell-based; settings: 48-h treatment
Description: SUNE1 (nasopharyngeal carcinoma), AGS (gastric adenocarcinoma), HeLa (cervix adenocarcinoma), HepG2 (hepatocellular carcinoma), U-87 MG (human glioblastoma cell), U2OS (osteosarcoma), MCF-7 (breast adenocarcinoma), MDA-MB-231 (breast adenocarcinoma), HCT116 (colorectal carcinoma), SW480 (colorectal adenocarcinoma), NCI-H460 (large cell lung carcinoma), NCI-H1650 (adenocarcinoma lung carcinoma), HCC827 (adenocarcinoma lung carcinoma), A549 (lung carcinoma), and CCD-19Lu (human lung fibroblast normal cell) were all obtained from American Type Culture Collection (ATCC, Manassas, VA, USA). Minimum Essential Media (MEM, Gibco®, ThermoFisher Scientific), Dulbecco's Modified Eagle Medium (DMEM, Gibco®, ThermoFisher Scientific), and RPMI-1640 Medium (Gibco®, ThermoFisher Scientific) supplemented with 10% Fetal Bovine Serum (Gibco®, ThermoFisher Scientific), and 100 U/mL penicillin-streptomycin (Gibco™, ThermoFisher Scientific) were used for cell culture. Cells were placed into an incubator with 5% CO2 that temperature was set at 37° C. […]
The cell viability assay was performed by a typical MTT assay. […] The formed formazan was then dissolved with SDS solution (10% SDS in 10 mM HCl) and followed the determination of absorbance at 590 nm by a microplate reader. The change in cell viability was then calculated for each drug concentration, then normalized to control. […]

[5] = 16.0 mg/kg, about 1 hour after administration

SMILES: CCCC(=O)c1c(O)c(Cc2c(O)c(Cc3c(O)c(C)c(OC)c(C(=O)CCC)c3O)c(O)c(C(=O)[C@@H](C)CC)c2O)c(O)c(C)c1OC [AGB, Agrimol B]
- body weight of female mice ([1]; 12.8 mg/kg, d 0, mean ± SD): 20.52 ± 1.00 g
- body weight of male mice ([1]; 12.8 mg/kg, d 0, mean ± SD): 21.16 ± 1.07 g
- body weight of female mice ([1]; 12.8 mg/kg, d 1, mean ± SD): 20.60 ± 1.18 g
- body weight of male mice ([1]; 12.8 mg/kg, d 1, mean ± SD): 21.27 ± 1.46 g
- body weight of female mice ([1]; 12.8 mg/kg, d 3, mean ± SD): 21.14 ± 0.99 g
- body weight of male mice ([1]; 12.8 mg/kg, d 3, mean ± SD): 21.89 ± 1.51 g
- body weight of female mice ([1]; 12.8 mg/kg, d 7, mean ± SD): 23.68 ± 1.83 g
- body weight of male mice ([1]; 12.8 mg/kg, d 7, mean ± SD): 25.64 ± 1.54 g
- body weight of female mice ([1]; 12.8 mg/kg, d 14, mean ± SD): 26.38 ± 1.63 g
- body weight of male mice ([1]; 12.8 mg/kg, d 14, mean ± SD): 31.60 ± 2.37 g
- symptoms of toxic reactions ([1]; 12.8 mg/kg, day of dosing and recovery period): No symptoms of toxic reactions were observed
- animals with reduced activities ([1]; 16.0 mg/kg, about 30 minutes after administration): 13/20
- mice appearing prone [1, 5]: 3/20
- mice with ptosis [1, 5]: 1/20
- body weight of female mice ([1]; 16.0 mg/kg, d 0, mean ± SD): 20.57 ± 0.90 g
- body weight of male mice ([1]; 16.0 mg/kg, d 0, mean ± SD): 21.24 ± 0.58 g
- body weight of female mice ([1]; 16.0 mg/kg, d 1, mean ± SD): 18.76 ± 0.89 g
- body weight of male mice ([1]; 16.0 mg/kg, d 1, mean ± SD): 19.64 ± 1.15 g
- body weight of female mice ([1]; 16.0 mg/kg, d 3, mean ± SD): 19.61 ± 1.50 g
- body weight of male mice ([1]; 16.0 mg/kg, d 3, mean ± SD): 20.04 ± 1.42 g
- body weight of female mice ([1]; 16.0 mg/kg, d 7, mean ± SD): 22.76 ± 1.26 g
- body weight of male mice ([1]; 16.0 mg/kg, d 7, mean ± SD): 24.25 ± 1.48 g
- body weight of female mice ([1]; 16.0 mg/kg, d 14, mean ± SD): 25.61 ± 0.87 g
- body weight of male mice ([1]; 16.0 mg/kg, d 14, mean ± SD): 31.48 ± 1.73 g
- MTD at 14 day ([1]; both sexes, mouse, in vivo, iv, single i.v. injection, ICR mice): 12.8 mg/kg
- morphology of mitochondria (MitoTracker Green) ([2]; 4 μM AGB, 0-16 h): gradually changed into significant punctuated structures
- ultrastructure of mitochondria (TEM) ([2]; 16 h treatment): circular vesicles of reduced diameter predominated
- expression of DRP1 and Mff ([2]; Western Blot): did not alter
- phosphor-DRP1 (Ser637) ([2]; Western Blot): significant decrease
- OPA1 cleavage from L-OPA1 into S-OPA1 ([2]; Western Blot, dose and time dependent): promoted OPA1 cleavage
- expression of Mfn1 and Mfn2 ([2]; Western Blot, dose-dependent): slightly decreased
- translocation of DRP1 from cytoplasm into mitochondria ([2]; immunostaining, mito-RFP-transfected cells): significantly promoted
- serum biochemical abnormalities vs vehicle control ([3]; 14 days after administration): no obvious abnormalities
- ALB ([3]; day 14): 17.73 ± 5.07 g/L
- ALP ([3]; day 14): 153.67 ± 37.63 U/L
- ALT ([3]; day 14): 26.09 ± 2.23 U/L
- AST ([3]; day 14): 85.74 ± 15.96 U/L
- BUN ([3]; day 14): 4.58 ± 2.24 mmol/L
- CK ([3]; day 14): 953.09 ± 480.50 U/L
- CREA ([3]; day 14): 34.11 ± 3.61 µmol/L
- GGT ([3]; day 14): 0.07 ± 0.08 U/L
- GLU ([3]; day 14): 9.10 ± 3.07 mmol/L
- LDH ([3]; day 14): 403.54 ± 92.68 U/L
- T.BIL ([3]; day 14): 1.75 ± 0.45 µmol/L
- T.CHO ([3]; day 14): 3.68 ± 1.60 mmol/L
- TG ([3]; day 14): 1.41 ± 0.59 mmol/L
- TP ([3]; day 14): 45.93 ± 13.71 g/L
- IC50 [4]: 31.1 µM
